Reference: a melting point compilation (Tetko et al.; mined from patent text by program, amines drawn as free bases though some values may be those of a salt)

melting point [°C] | Structure (SMILES)
176 to 177 | CNC(CSCC(=O)c1ccc2[nH]c3ncc(Cl)cc3c2c1)NC
168 | CCCCc1nc(SC)c(C(=O)OCC)n1Cc1ccc(-c2nc3ccccn3c2C#N)cc1
203 | COc1ccc(N2CCN(S(=O)(=O)c3cccc(/C=C/C(=O)NO)c3)CC2)cc1
200 to 201 | COC(=O)c1ccc(OCC2CN(c3ccc([N+](=O)[O-])cc3)C(=O)O2)cc1 (centres undefined)
52 to 55 | COc1ccc(OC)c(COc2cc(Cl)sn2)c1
104 to 107 | CC1(C)C=Cc2c(ccc3ncccc23)O1
29 to 30 | CCC1(CC)c2ccccc2-c2ccccc21
55 to 63 | CCC1(CC)CCSc2c(CC#Cc3ccc(C=O)cc3)cccc21
190 to 192 | O=C(O)Cc1ccc(NC(=O)C(COc2ccccc2)NS(=O)(=O)c2ccc(Cl)cc2)cc1 (racemic)
168 to 174 | N#Cc1ccc2c(c1)ncn2-c1cccc(Br)c1
213 to 215 | Cc1ccc(C)c(NS(=O)(=O)c2ccc(N3CCNC3=O)cc2)c1
167 | CCN(CC)c1ccc(C=C2CCCC(=Cc3ccc(N(CC)CC)cc3)C2=O)cc1
115 to 130 | COc1ccc(CC2COCc3nc4c(N)nc5ccccc5c4n32)cc1 (centres undefined)
115 to 116 | CC(C)Oc1ccc(SCCSc2ccc(OC(C)C)cc2)cc1
129 to 132 | CC(=O)c1cc2c(Br)ccc(OC(C)c3ccccc3)c2o1 (centres undefined)
149 to 150 | CCOC(=O)[C@H](Cc1ccc(O)cc1)NC(=O)c1c(F)cccc1F
97 to 100 | CCNC(C)CN1CCc2c(c(=O)oc3cc(OC)ccc23)C1 (centres undefined)
131 | COc1ccccc1-c1ccc(C[C@H](NC(=O)c2c(Cl)cccc2Cl)C(=O)O)cc1Cl
169 to 171 | CON=C(Cn1c(=O)ccc2ccccc21)c1ccc(N2CCCC2)cc1
> 250 | COc1ccc2ncc(C#N)c(Nc3ccc4cn[nH]c4c3)c2c1

melting point [°C] | Structure (SMILES)
272 to 282 | CC(=O)Nc1ccc(/C=C/C(=O)NCC(=O)Nc2ccc(Cl)c(COc3cccc4ccc(C)nc34)c2Cl)cn1
86 to 91 | O=[N+]([O-])c1ccc(CCNCCc2ccc([N+](=O)[O-])cc2)cc1
41 to 43 | O=C(c1ccccc1)c1ccc(Cl)cc1Cl
201 to 202 | CCCC(=O)Nc1ccc(OCc2nc3cc(F)ccc3s2)cc1
134 to 135 | CCCOc1ccc(-c2ncccc2S(=O)(=O)Nc2ncc(C)nc2OC)cc1
156 to 157 | CCc1noc(-c2cn(-c3ncc(OC(C)C)cn3)cn2)n1
51 to 55 | ICCC(c1ccccc1)c1ccccc1
102 to 105 | COc1ccc2c(c1CCc1ccccc1)CCCC2=O
150 to 151 | C=CCOC(=O)C(C)(C)Cc1c(SC(C)(C)C)c2cc(O)ccc2n1Cc1ccc(Cl)cc1
147 to 150 | CC(C)(C)OC(=O)N1CCC(c2ccc(COc3ccc(-n4cncn4)cc3)nc2)CC1
193 to 194 | Cc1nc2c(O)c(CCC(=O)c3ccccc3OCc3ccccc3)c(C(=O)N(C)C)cc2n1C
52 to 53 | CCN(SN(C)C=Nc1ccc(C)cc1C)c1ccccc1
145 | CCCCc1cc(OCc2ccc(-c3ccccc3C(=O)O)cc2)c2ccccc2n1
234 to 236 | Cc1c(NC(=O)c2ccc(-c3ccc(Cl)cc3)nc2)ccc2cc(CN3CCCC3)cnc12
127 | CCCCn1ccc(-c2ccc(Oc3ccnc(C)c3)cc2F)c(C#N)c1=O
195 to 197 | O=C(O)c1ccc(Oc2ccc([N+](=O)[O-])cc2)cc1O
205 to 206 | CN(C)C(=O)COC(=O)COc1ccc(C(=O)Nc2ccccc2Sc2ccccc2-c2nnn[nH]2)cc1
124 | Cc1cc(Sc2ccc(O)c(C)c2)ccc1O
57 to 58 | CC=Cn1c2ccccc2c2ccccc21
218 to 222 | Cc1cccc(Nc2nc(-c3ccc(-c4ccccc4)cc3)cs2)n1

Continued, compound first:

Structure (SMILES) | melting point [°C]
Oc1ccc(O)c(F)c1 | 33 to 35
O=C(CCCl)c1ccc2c(c1)Cc1cc(C(=O)CCCl)ccc1O2 | 180 to 181
CC1CN(c2cc3c(cc2F)c(=O)c(C(=O)O)cn3C2CC2)CCN1CCC#N (centres undefined) | 203 to 206
CCn1cc(C(=O)O)c(=O)c2ccc(N3CCN(C)CC3)cc21 | 215
Cn1ncnc1COc1nn2c(-c3ccccc3F)nncc2c1-c1cccc(F)c1 | 176
O=C1NC(=O)C(F)(c2ccccc2)CO1 (centres undefined) | 115 to 117
CCC(C)NC(=O)NCC=CCOc1cc(CN2CCCCC2)ccn1 (centres undefined) | 72 to 74
CCc1c(C(=O)C(N)=O)c2c(OCC(=O)NOCc3ccccc3)cccc2n1Cc1ccccc1 | 167 to 169
CCCCCCCCCCCCCCc1onc(C(=O)NN)c1O | 130
COc1cc2c(cc1OC(C)C)-c1c(-c3cccnc3)c3c(n1CC2)C(=O)N(C(C)(C)C)CCOC3 | 193 to 194
Cc1cc(-c2nnc3c4ccccc4c(OCc4cc(C(C)(C)C)cnn4)nn23)no1 | 219 to 221
CCN1C(=O)C(C)=C2C[C@@]3(C)C(=C[C@@H](OC)[C@H](O)[C@@H]3C)C=C21 | 151 to 154
COc1ccc(C=C(C#N)C#N)c2c1OC(C)(C)C2 | 198 to 200
CCC(Nc1cc(C)nc(Oc2c(C)cc(Cl)cc2C)c1C(=O)OC)C(C)O (centres undefined) | 133 to 135
CC(C)c1ccc(C(=O)O)cc1S(N)(=O)=O | 245
NS(=O)(=S)CCCc1ccccc1 (centres undefined) | 98 to 101
COc1ccccc1-n1c(=O)[nH]c2c(C(N)=O)nc(-c3ccnc(O)c3)nc21 | 360 to 362
O=C1N(Cc2cccc(OCc3ccccc3)c2)c2ccccc2C12COc1cc3c(cc12)CCO3 (centres undefined) | 66 to 68
COC=C(C(=O)OC)c1c(OC)ncnc1Oc1cccc(C)c1 | 107
N#Cc1[nH]c2ccc([N+](=O)[O-])cc2c1-c1ccccc1 | 242 to 254

Structure (SMILES) | melting point [°C]
CC(C)N1C(=O)C(=O)N(c2cc(Cl)cc(Cl)c2)S1=O (centres undefined) | 109
CC(C)(C)OC(=O)C(CC(=O)O)N1C(=O)C2NC(C)(C)SC21 (centres undefined) | 137 to 138
CC(=O)NC(Cc1c[nH]c2ccccc12)C(=O)NCc1cc(C(F)(F)F)cc(C(F)(F)F)c1 (centres undefined) | 171 to 173
OCCCCCCCCCCCOc1ccc(-c2nc(-c3ccccc3)nc(-c3ccc(OCCCCCCCCCCCO)cc3O)n2)c(O)c1 | 126 to 135
COc1cc(I)c(C=O)cc1OC | 139 to 141
Cc1cc(Nc2ccnc(Nc3ccc(S(=O)(=O)N(C)C4CCN(C)CC4)cc3)n2)ccc1F | 110 to 120
O=C(CCC(=O)N1CCC(c2ccc(Cl)cc2)CC1)c1ccc2c(c1)CNC2 | 133 to 134
Nc1cc(C(=O)O)ccc1-c1nc(-c2ccc(C(F)(F)F)cc2)no1 | > 300
O=C(C1=C(N2CCCC2)CCC1)c1cccnc1Cl | 102 to 104
CCCC(NC=O)C1(c2ccc(Cl)cc2)CCC1 (centres undefined) | 97.5 to 98.5
CN(C)C=C1CCc2ccn(S(=O)(=O)c3ccccc3)c2C1=O | 116 to 118
O=C1c2cccc3c(N4CCCCC4)c(Br)cc(c23)C(=O)N1O | > 250
CC1(C)CC(=O)N(C(=O)OCc2ccccc2)CC(C)(C)N1 | 86 to 88
CC(=O)N1[C@@H](c2ccc(F)cc2)SC(C)(C)[C@@H]1C(=O)O | 144 to 146
O=c1[nH]c2ccccc2c2cc(CC(=S)N3CCOCC3)nn12 | 273 to 275
Cc1nnc(C)c(-c2c(F)cc(F)cc2F)c1-c1cccs1 | 100 to 102
N#Cc1nn(-c2c(Cl)cc(C(F)(F)F)cc2Cl)cc1OC(F)(F)C(F)Cl (racemic) | 99 to 101
O=C(O)C1(c2ccsc2)CC1 | 132 to 133
COc1nc(N)nc(OC(F)(F)F)n1 | 69 to 91
Cc1nnc2n1-c1ccccc1C(c1ccccc1C(F)(F)F)OC2 (centres undefined) | 265 to 269

Structure (SMILES) | melting point [°C]
Cn1c(C2CC2)nc2cc(C(=O)NC3CC3)c(NC(=O)c3cc(C(F)(F)F)nn3-c3ncccc3Cl)c(Cl)c21 | 233 to 235
CCN1C(=O)C(C(=O)Nc2cccc(C(=O)Nc3ccc(Br)cc3)c2)c2cc(C(=O)c3ccccc3)ccc21 (centres undefined) | 139 to 142
CN(C)C(=O)c1ccc([N+](=O)[O-])cc1S(=O)(=O)NC(C)(C)C | 138 to 141
Nc1ccc(S(=O)(=O)Nc2cc(Br)nc(Br)c2)cc1 | 220 to 222
O=c1[nH][nH]c(=O)n1Cc1ccccc1 | 185 to 188
CCn1cc(C(=O)O)c(=O)c2cc(F)c(N3Cc4ccc(C(=O)OC)cc4C3)c(F)c21 | 264 to 267
O=C(/C=C/c1ccc(C(=O)Nc2cccc(Nc3nc(-c4cccnc4)cs3)c2)cc1)NOC1CCCCO1 (centres undefined) | 158
O=C(O)CCNC(=O)C(=Cc1ccccc1)CS | 80
N#Cc1ccc(C(=O)N[C@H]2CC[C@H](CCN3CCN(c4nccc5c4CCO5)CC3)CC2)cc1 | 244
O=c1cc(-c2ccc(O)nc2)oc2ccccc12 | 296 to 297
NCCCc1cc(Nc2nc(-c3ccccc3)nc3ccccc23)[nH]n1 | 205 to 207
N#Cc1cc(Cn2cncn2)cc(-c2ccc(OS(N)(=O)=O)c(Cl)c2)c1 | 163 to 164
NS(=O)(=O)c1ccc(-n2nc(C(F)(F)F)c(CO)c2-c2ccccc2)cc1 | 179 to 180
OCC1OC(n2cnc3c(NNC4CCSc5ccccc54)ncnc32)C(O)C1O (centres undefined) | 105 to 107
Cc1cccc2c1nc1n2CC(c2ccccn2)S1 (centres undefined) | 96
COc1cc2c(cc1OC)CC(=O)N(CCCN(C)C[C@H]1Cc3cc(OC)c(OC)cc31)CC2 | 98 to 100
c1coc(-c2nc3nsnc3nc2-c2ccncn2)c1 | 233 to 235
C=C(C)C(=O)OCCNC(=O)OCCOc1ccccc1-c1ccccc1OCCOC(=O)NCCOC(=O)C(=C)C | 72 to 74
O=C(Nc1ccc2c(c1)CCN2)C(=O)N1CCC(Cc2ccccc2)CC1 | 75 to 76
